Measured values from patent US20050059669A1, “M-substituted benzoic acid derivatives having integrin alpha v beta 3 antagonistic activity” (priority 1999, published 2005).
Each block holds one compound with its values, some of them ahead of it.

Legend:
[1] = molecular target: T1, integrin αvβ3 (vitronectin receptor purified from the human placenta) (Homo sapiens, UniProt P05106+P06756); assay: αvβ3 binding assay (vitronectin-vitronectin receptor binding assay); details: vitronectin binding to coated human placenta vitronectin receptor; read-out: integrin αvβ3 antagonistic activity (IC50)
T1 construct: a vitronectin receptor (protein content: 118 mg/ml) purified from the human placenta; from tissue; host or cells: human placenta
Protocol: Integrin αvβ3 antagonistic activity was first measured in a vitronectin-vitronectin receptor binding assay system in accordance with the method of Kouns et al. (W. C. Kouns, D. Kirchhofer, P. Hadvary, A. Edenhofer, T. Weller, G. Pfenninger, H. R. Baumgartner, L. K. Jennings and B. Steiner, Blood, 80, 2539-2547 (1992)). […] A 0.1 M citric acid buffer (pH 4.3) containing 0.05% NaN3 was added in an amount of 50 μl/well to stop the reaction, followed by the measurement of the absorbance at 415 nm with a microplate reader (MTP 32, Corona Electric) (reference: 675 nm). The total binding was defined as the absorbance after a reaction using 50 μl of TBS-Tween instead of the test compound, and the non-specific binding (100% inhibition) was defined as the absorbance after a reaction using 50 μl of TBS-Tween containing 2×10^−3 M RGDS. The inhibition was calculated by the following equation: [formula]
IC50 was determined from a primary regression line of the logarithm of each concentration of the test compound and the logarithm of (100−inhibition)/inhibition.

[2] = molecular target: GP IIb/IIIa (Homo sapiens, UniProt P05106+P08514); assay: GP IIb/IIIa antagonistic activity (method of Pharmacological Test 2 in WO 94/21599); type: binding
Protocol: GP IIb/IIIa antagonistic activity was measured for the compounds according to the present invention. The measurement of the GP IIb/IIIa antagonistic activity was carried out according to the method described in Pharmacological Test 2 in WO 94/21599. As a result, both the compounds prepared in Examples 3 and 6 had significant GP IIb/IIIa antagonistic activity. In particular, the IC50 value of the compound prepared in Example 3 was 2.0 nM.

[3] = system: human vascular smooth muscle cells; assay: Inhibitory activity against adhesion of human vascular smooth muscle cells to vitronectin; type: cell-based
Protocol: The adhesion of human vascular smooth muscle cells to immobilized human vitronectin was measured in accordance with the method of Liaw et al. (Liaw L, Almeida M, Hart C E, Schwartz S M, and Giachelli C M, Circulation Research, 74 (2), 214-224 (1994)).
A Dulbecco's phosphate buffer (Dulbecco's PBS(−), Nissui Pharmaceutical Co., Ltd.) solution of human plasma-derived vitronectin (CALBIOCHEM) adjusted to a concentration of 4 μg/ml was first added to wells (50 μl/well) of a microplate (Maxisorp, Nunc), and a reaction for immobilization was allowed to proceed at 4° C. overnight. After washing twice with 150 μl of Dulbecco's phosphate buffer, a Dulbecco's phosphate buffer containing 10 mg/ml of bovine serum albumin (SIGMA) was added, followed by blocking at 37° C. for one hr. […]
Next, 50 μl of a Dulbecco's modified Eagle's basal medium containing 0.1% of bovine serum albumin with a medicament added thereto was added to the wells of the human vitronectin-coated assay microplate, followed by pre-cultivation under 5% carbon dioxide at 37° C. for 10 min. […] The absorbance of the microplate thus obtained was measured at 595 nm. […] The inhibition was calculated by the following equation. IC50 was determined from a primary regression line of the logarithm of each concentration of the test compound and the logarithm of (100−inhibition)/inhibition. […]

T1 sequence (P06756 31-889 limits assumed): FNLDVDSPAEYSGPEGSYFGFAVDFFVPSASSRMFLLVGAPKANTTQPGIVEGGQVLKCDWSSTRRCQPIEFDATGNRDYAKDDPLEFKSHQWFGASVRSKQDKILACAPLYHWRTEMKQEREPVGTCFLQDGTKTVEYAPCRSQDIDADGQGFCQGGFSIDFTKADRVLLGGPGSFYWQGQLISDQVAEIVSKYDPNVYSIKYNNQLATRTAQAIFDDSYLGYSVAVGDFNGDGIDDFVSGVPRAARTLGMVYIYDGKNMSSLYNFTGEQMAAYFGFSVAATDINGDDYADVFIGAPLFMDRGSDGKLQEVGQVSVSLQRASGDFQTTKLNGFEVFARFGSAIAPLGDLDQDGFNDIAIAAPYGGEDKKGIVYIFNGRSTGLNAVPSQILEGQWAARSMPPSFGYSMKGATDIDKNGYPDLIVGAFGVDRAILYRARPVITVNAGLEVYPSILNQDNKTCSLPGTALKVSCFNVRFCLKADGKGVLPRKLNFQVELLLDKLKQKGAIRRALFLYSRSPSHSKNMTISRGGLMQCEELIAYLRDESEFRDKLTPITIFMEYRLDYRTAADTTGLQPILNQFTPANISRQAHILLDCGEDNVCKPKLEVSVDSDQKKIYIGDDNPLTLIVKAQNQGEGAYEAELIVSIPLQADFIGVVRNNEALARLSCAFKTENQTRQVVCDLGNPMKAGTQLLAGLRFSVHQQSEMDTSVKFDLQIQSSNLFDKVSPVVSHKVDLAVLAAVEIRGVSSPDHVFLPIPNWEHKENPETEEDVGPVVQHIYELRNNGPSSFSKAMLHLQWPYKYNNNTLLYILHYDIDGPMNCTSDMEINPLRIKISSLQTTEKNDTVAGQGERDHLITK
T1 sequence (P06756 891-1048 partner limits assumed): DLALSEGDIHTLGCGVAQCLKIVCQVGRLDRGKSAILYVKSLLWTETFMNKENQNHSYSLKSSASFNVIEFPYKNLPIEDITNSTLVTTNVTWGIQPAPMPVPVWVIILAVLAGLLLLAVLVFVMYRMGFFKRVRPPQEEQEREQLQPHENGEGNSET
T1 sequence (P05106 27-788): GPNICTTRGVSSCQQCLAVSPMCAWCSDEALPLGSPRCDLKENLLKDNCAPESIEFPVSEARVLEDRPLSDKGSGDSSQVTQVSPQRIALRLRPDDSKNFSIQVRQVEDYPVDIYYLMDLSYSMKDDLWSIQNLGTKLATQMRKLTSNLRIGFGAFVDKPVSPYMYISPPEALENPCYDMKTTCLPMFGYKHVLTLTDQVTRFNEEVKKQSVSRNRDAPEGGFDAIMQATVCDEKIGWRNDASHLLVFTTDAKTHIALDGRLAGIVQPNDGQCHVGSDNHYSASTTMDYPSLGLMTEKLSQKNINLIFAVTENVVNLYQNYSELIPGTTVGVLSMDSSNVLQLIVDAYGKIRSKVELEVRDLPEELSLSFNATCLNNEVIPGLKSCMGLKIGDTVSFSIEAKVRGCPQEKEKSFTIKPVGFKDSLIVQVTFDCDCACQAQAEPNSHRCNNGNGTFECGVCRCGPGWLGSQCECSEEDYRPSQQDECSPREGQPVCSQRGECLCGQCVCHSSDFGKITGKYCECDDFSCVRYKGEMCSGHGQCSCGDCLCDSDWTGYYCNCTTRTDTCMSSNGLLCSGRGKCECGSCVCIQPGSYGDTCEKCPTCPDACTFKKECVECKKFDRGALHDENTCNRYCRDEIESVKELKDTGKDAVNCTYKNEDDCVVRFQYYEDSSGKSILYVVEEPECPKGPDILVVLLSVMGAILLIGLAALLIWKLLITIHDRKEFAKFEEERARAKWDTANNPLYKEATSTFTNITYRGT
Chain of GP IIb/IIIa (P08514 32-887 limits assumed): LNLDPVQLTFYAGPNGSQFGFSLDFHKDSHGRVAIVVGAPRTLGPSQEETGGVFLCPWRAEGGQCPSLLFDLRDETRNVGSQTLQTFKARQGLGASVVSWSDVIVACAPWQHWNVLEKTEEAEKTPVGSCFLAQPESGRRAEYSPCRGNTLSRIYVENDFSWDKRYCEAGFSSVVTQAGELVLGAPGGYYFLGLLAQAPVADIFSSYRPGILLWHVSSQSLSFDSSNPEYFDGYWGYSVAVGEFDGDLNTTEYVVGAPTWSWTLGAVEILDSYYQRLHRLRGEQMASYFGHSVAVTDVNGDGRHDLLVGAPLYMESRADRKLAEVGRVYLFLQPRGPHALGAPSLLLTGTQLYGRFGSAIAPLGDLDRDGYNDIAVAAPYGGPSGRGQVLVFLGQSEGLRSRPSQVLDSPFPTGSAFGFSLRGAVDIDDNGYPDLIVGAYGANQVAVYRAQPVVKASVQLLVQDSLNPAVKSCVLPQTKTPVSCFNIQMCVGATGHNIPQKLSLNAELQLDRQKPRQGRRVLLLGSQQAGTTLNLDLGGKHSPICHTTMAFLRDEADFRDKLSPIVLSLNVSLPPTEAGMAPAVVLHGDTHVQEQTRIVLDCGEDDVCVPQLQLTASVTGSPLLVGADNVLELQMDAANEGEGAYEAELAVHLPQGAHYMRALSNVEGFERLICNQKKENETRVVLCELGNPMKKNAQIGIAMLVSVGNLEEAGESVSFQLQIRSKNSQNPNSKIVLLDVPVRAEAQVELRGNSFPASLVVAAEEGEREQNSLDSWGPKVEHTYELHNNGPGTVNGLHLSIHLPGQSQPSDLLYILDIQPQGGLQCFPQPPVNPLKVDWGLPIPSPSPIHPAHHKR
Chain of GP IIb/IIIa (P08514 891-1039 partner limits assumed): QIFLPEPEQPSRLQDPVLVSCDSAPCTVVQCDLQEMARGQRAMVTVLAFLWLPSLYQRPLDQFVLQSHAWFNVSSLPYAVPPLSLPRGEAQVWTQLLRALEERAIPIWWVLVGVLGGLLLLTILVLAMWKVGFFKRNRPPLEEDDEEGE
Chain of GP IIb/IIIa (P05106 27-788): as the sequence (P05106 27-788) above

IC50 [1]: 1.3 nM
IC50 [2]: 2 nM
SMILES: O=C(NC[C@H](NS(=O)(=O)c1ccccc1)C(=O)O)c1cccc(N2CCN(C3=NCCCN3)CC2)c1 [Example 3, (2S)-Benzenesulfonylamino-3-[3-{4-(1,4,5,6-tetrahydropyrimidin-2-yl)piperazin-1-yl}benzoylamino]-propionic acid]

SMILES: O=C(NC[C@H](NS(=O)(=O)c1ccccc1)C(=O)O)c1cccc(N2CCC(NC3=NCCCN3)CC2)c1 [Example 6, (2S)-Benzenesulfonylamino-3-[3-{4-(1,4,5,6-tetrahydropyrimidin-2-ylamino)piperidin-1-yl}benzoylamino]propionic acid]
GP IIb/IIIa antagonistic activity ([2]; result in words): significant

IC50 [1]: 2 nM
SMILES: O=C(NC[C@H](NS(=O)(=O)c1ccccc1)C(=O)O)c1ccc(F)c(N2CCC(NC3=NCCCN3)CC2)c1 [Example 9, (2S)-Benzenesulfonylamino-3-[4-fluoro-3-{4-(1,4,5,6-tetrahydropyrimidin-2-ylamino)piperidin-1-yl}-benzoylamino]propionic acid]

SMILES: O=C(NC[C@H](NS(=O)(=O)c1ccccc1)C(=O)O)c1cc(N2CCC(NC3=NCCCN3)CC2)cc(C(F)(F)F)c1 [Example 27, (2S)-Benzenesulfonylamino-3-[3-{4-(1,4,5,6-tetrahydropyrimidin-2-ylamino)piperidin-1-yl}-5-(trifluoromethyl)benzoylamino]propionic acid]
IC50 ([3]; immobilized human vitronectin): 96 nM
cell adhesion inhibitory activity ([3]; result in words): potent
